The test deals with MM1.S human multiple myeloma cells. As to the kind of experiment: Apoptosis by annexin V-FITC and PI staining. It is filed as cell-based. On the procedure:
Apoptosis was determined by staining cells with annexin V-FITC and propidium iodide (PI). Cells were treated with DEX in the presence or absence of NM-3. NM-3 was added 2 hours before the addition of DEX. After 24 hours of DEX exposure, cells were washed twice with cold PBS, resuspended in binding buffer (10 mM HEPES/NaOH (pH 7.4), 140 mM NaCl, 2.5 mM CaCl2), and then stained with annexin V-FITC (Clontech Laboratories) and PI (Boehringer-Manheim). Apoptosis was analyzed by using a flow cytometer (EPICS XL-MCL, Coulter Corp). The cultured cells were also subjected to cell cycle analysis. Briefly, cells were washed twice with PBS and fixed with 70% ethanol. Cells were then washed with 0.5 ml PBS and 1.0 ml phosphate-citric acid buffer (0.2 M Na2HPO4 and 0.1 M citric acid (pH 7.8)), treated with 200 μg/ml RNase for 15 min at 37° C., and stained with 50 μg/ml PI for 30 min at room temperature in the dark. Cells were filtered through 35-μm diameter mesh to remove clumps. Nuclear staining was analyzed by a flow cytometer. Cells with fractional DNA content located on DNA frequency histograms to the left of the G1 peak (sub-G1 cells) were identified as apoptotic cells.

Molecules are shown by their SMILES.

For the compound `COc1cc(O)c2c(=O)oc(C(C)C(=O)O)cc2c1` (centres unmarked) [NM-3, 2-(8-hydroxy-6-methoxy-1-oxo-1H-2-benzopyran-3-yl) propionic acid], under “NM-3 alone, 50-200 μg/ml”, the “Population of cells positive for annexin V and PI (apoptotic cells)” value is “did not change the population of cells positive for annexin V and PI”. Besides, for the setting “pretreatment with NM-3, DEX 1 μM, 24 hours”, the “DEX-induced increase of apoptotic cells” value is given as “further enhanced”.

(Values after US6900239B2, “Tumor chemopotentiation using isocoumarin derivatives” (ILWZ ILEX Products, Inc., priority 2000, dated 2005).)
